The source of these data is ChEMBL document CHEMBL1759859, “Sargachromanols as inhibitors of Na+/K+ ATPase and isocitrate lyase” (Bioorg Med Chem Lett, 2011).

The IC50 is the concentration needed to halve the response being measured. By MIC is commonly meant the smallest concentration in the dilution series that meets the test's criterion for growth inhibition.

The subject of one assay is Aspergillus fumigatus. Kind of assay: Antifungal activity against Aspergillus fumigatus HIC 6094 at 100 ug/ml after 2 weeks. It is filed as functional, organism-based.
The subject of assay [1] is Trichophyton mentagrophytes. The assay can be described thus: Antifungal activity against Trichophyton mentagrophytes IFO 40996 at 100 ug/ml after 2 weeks. It is filed as functional, organism-based.
Another assay deals with Trichophyton rubrum. Kind of assay: Antifungal activity against Trichophyton rubrum IFO 9185 at 100 ug/ml after 2 weeks. It is filed as functional, organism-based.
Another assay relates to Candida albicans. Kind of assay: Antifungal activity against Candida albicans ATCC 10231 at 100 ug/ml after 2 weeks. The class given is functional, organism-based.
A short description of assay [2]: Inhibition of porcine cerebral cortex Na+/K+ ATPase by spectrophotometry. The class given is tissue-based, Sus scrofa.
In the next assay the target is Isocitrate lyase (Candida albicans, UniProt Q9P8Q7). The assay can be described thus: Inhibition of Candida albicans ICL assessed as formation of glyoxylate phenylhydrazone by spectrophotometry.
Chain of Isocitrate lyase (Q9P8Q7 whole entry): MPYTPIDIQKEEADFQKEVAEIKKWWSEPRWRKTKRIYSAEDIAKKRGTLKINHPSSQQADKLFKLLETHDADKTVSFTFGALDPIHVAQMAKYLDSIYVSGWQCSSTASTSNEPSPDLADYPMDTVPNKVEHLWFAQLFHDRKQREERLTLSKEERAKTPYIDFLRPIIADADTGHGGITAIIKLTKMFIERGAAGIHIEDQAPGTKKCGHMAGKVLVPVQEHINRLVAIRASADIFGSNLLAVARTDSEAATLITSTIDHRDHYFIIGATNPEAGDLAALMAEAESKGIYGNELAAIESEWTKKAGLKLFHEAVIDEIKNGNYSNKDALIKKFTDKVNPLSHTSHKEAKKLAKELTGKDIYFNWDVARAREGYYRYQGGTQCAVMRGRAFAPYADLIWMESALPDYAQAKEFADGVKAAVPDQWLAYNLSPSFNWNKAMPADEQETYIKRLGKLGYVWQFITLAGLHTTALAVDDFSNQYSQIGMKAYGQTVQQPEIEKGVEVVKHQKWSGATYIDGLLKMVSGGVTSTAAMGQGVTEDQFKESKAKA
In another assay the test system is Salmonella typhimurium. Kind of assay: Antibacterial activity against Salmonella Typhimurium ATCC 14028 after 24 hrs by broth dilution method. The conditions noted are these: Salmonella enterica, ATCC 14028, 24 h. The class given is functional, Salmonella enterica subsp. enterica serovar Typhimurium. (In general: Dilution methods test growth across graded concentrations, often in twofold steps.)

The test system of the next assay is Bacillus subtilis. The assay can be described thus: Antibacterial activity against Bacillus subtilis ATCC 6633 after 24 hrs by broth dilution method. The conditions noted are these: ATCC 6633, 24 h. The class given is functional.
The subject of the next assay is Micrococcus luteus. The assay can be described thus: Antibacterial activity against Micrococcus luteus IFC 12708 after 24 hrs by broth dilution method. It is filed as functional. The conditions noted are these: IFC 12708, 24 h.
For a further assay, the system named is Proteus vulgaris. Kind of assay: Antibacterial activity against Proteus vulgaris ATCC 3851 after 24 hrs by broth dilution method. It is filed as functional. The conditions noted are these: ATCC 3851, 24 h.

Each structure is given as a SMILES string. Values after ≈ are worked out from the molar mass of the structure shown. Active and inactive are the calls of the source. Some results are limits rather than exact numbers.

For `O=C(O)CC[N+](=O)[O-]`, the inhibition result (in the assay on Aspergillus fumigatus; in assay [1]; in the assay with Trichophyton rubrum; in the assay on Candida albicans) was “inactive” throughout. As to `C[C@@H]1O[C@@H](O[C@H]2C[C@@H](O)[C@]3(CO)[C@H]4[C@H](O)C[C@]5(C)[C@@H](C6=CC(=O)OC6)CC[C@]5(O)[C@@H]4CC[C@]3(O)C2)[C@H](O)[C@H](O)[C@H]1O` [OUABAIN], the inhibition result (in the assay on Aspergillus fumigatus; in [1]; in the assay on Trichophyton rubrum; with Candida albicans) was “inactive” in each case. In assay [2], this compound had a 50% inhibitory concentration (IC50) of 4.6 µM. On to `CC(C)=C/C(C=O)=C(\C)CCC/C(C)=C/CC[C@]1(C)CCc2cc(O)cc(C)c2O1` [SARGACHROMANO N], for which the 50% inhibitory concentration (IC50) at Isocitrate lyase is above 487 µM.

Take `CC(C)=C[C@@H](O)C(=O)C(C)CCC/C(C)=C/CC[C@]1(C)CCc2cc(O)cc(C)c2O1` (stereo partly drawn) [SARGACHROMANOL I]: the IC50 on Isocitrate lyase is above 467 µM.

Turning to `CC(C)=C[C@@H]1C(=O)C(C)=C[C@H]1C/C(C)=C/CC[C@]1(C)CCc2cc(O)cc(C)c2O1` [SARGACHROMANOL P], on Isocitrate lyase, the IC50 is 149 µM. The same measure, in the same setting: the result for `COC(/C(C)=C/CC/C(C)=C/CC[C@]1(C)CCc2cc(O)cc(C)c2O1)[C@H](O)C=C(C)C` (stereo partly drawn) [SARGACHROMANOL F] reads above 452 µM. Turning to `CC1(C)S[C@@H]2[C@H](NC(=O)[C@H](N)c3ccccc3)C(=O)N2[C@H]1C(=O)O` [AMPICILLIN], the inhibition entry (in the assay with Aspergillus fumigatus; in assay [1]; in the assay on Trichophyton rubrum; with Candida albicans) was “inactive” each time. The MIC against Salmonella typhimurium, against Bacillus subtilis, in the assay with Micrococcus luteus and in the assay with Proteus vulgaris was 0.78 µg/mL (≈ 2.23 µM) in each case. `C/C(=C\CC/C(C)=C/CC[C@]1(C)CCc2cc(O)cc(C)c2O1)CO` [SARGACHROMANOL B]: the IC50 on Isocitrate lyase is above 581 µM. On the same count and under the same terms, for `CC(C)=CC[C@@H](O)/C(C)=C/CC/C(C)=C/CC[C@]1(C)CCc2cc(O)cc(C)c2O1` [SARGACHROMANOL C] the value was above 485 µM. Same read-out and setting: the result for `CC(C)=C[C@H](O)[C@@H](O)/C(C)=C/CC/C(C)=C/CC[C@]1(C)CCc2cc(O)cc(C)c2O1` [SARGACHROMANOL E] reads above 467 µM. For `CC(C)=CC(C(=O)O)/C(C)=C/CC/C(C)=C/CC[C@]1(C)CCc2cc(O)cc(C)c2O1` (stereo partly drawn) [SARGACHROMANOL O], the concentration for half-maximal inhibition (IC50) on Isocitrate lyase was above 469 µM. Same read-out and setting: the result for `CC(C)=CC(=O)[C@@H](O)/C(C)=C/CC/C(C)=C/CC[C@]1(C)CCc2cc(O)cc(C)c2O1` [SARGACHROMANOL K] reads above 469 µM. Take `CC(C)=C[C@@H](O)C(=O)/C(C)=C/CC/C(C)=C/CC[C@]1(C)CCc2cc(O)cc(C)c2O1` [SARGACHROMANOL G]: the IC50 at Isocitrate lyase was above 469 µM. Regarding `CC(C)=C/C(C=O)=C(/C)CCC/C(C)=C/CC[C@]1(C)CCc2cc(O)cc(C)c2O1` [SARGACHROMANOL M], at Isocitrate lyase, the IC50 was 173 µM. In the case of `C/C(=C\CC[C@]1(C)CCc2cc(O)cc(C)c2O1)CCCC(C)C(=O)[C@@H](O)CC(C)C` (stereo partly drawn) [SARGACHROMANOL J], the concentration for half-maximal inhibition (IC50) on Isocitrate lyase was above 464 µM. On the same count and under the same terms, the result for `C/C(=C\CC[C@]1(C)CCc2cc(O)cc(C)c2O1)C/C=C\C(C)C(=O)[C@H](O)CC(C)C` (stereo partly drawn) [SARGACHROMANOL H] reads above 467 µM; that for `C/C(C=O)=C\CC/C(C)=C/CC[C@]1(C)CCc2cc(O)cc(C)c2O1` [SARGACHROMANOL A], 185 µM; that for `CC(C)=C[C@@H](O)[C@@H](O)/C(C)=C/CC/C(C)=C/CC[C@]1(C)CCc2cc(O)cc(C)c2O1` [SARGACHROMANO D], above 467 µM. Same read-out and setting: for `CC(C)=CC(CO)/C(C)=C/CC/C(C)=C/CC[C@]1(C)CCc2cc(O)cc(C)c2O1` (stereo partly drawn) [SARGACHROMANOL L] the value was 117 µM.
